Experimental data as given in article PMC9583322, “Vicinal Diaryl-Substituted Isoxazole and Pyrazole Derivatives with In Vitro Growth Inhibitory and In Vivo Antitumor Activity” (ACS Omega, 2022).

Columns and labels:
Experiment in all cases: NCI-60 single-dose screen
Type in all cases: cell-based
[1] = system: A549/ATCC; conditions: Homo sapiens, Non-Small Cell Lung Cancer, read-out: % Growth Inhibition (GI%)
Method: (§1) Moreover, in vitro single-dose anticancer screening of 11 and 85 at 10 μM was performed utilizing the stable panel of 60 cell lines comprising 9 different cancer types at the National Cancer Institute (NCI) under the Developmental Therapeutics Program (Table S1).[31]

[2] = system: ACHN; conditions: Homo sapiens, Renal Cancer, read-out: % Growth Inhibition (GI%)
Method: as §1

[3] = system: BT-549; conditions: Homo sapiens, BT-549, Breast Cancer, read-out: % Growth Inhibition (GI%)
Method: as §1

[4] = system: CAKI-1; conditions: Homo sapiens, CAKI-1, Renal Cancer, read-out: % Growth Inhibition (GI%)
Method: as §1

[5] = system: CCRF-CEM; conditions: Homo sapiens, Leukemia, read-out: % Growth Inhibition (GI%)
Method: as §1

[6] = system: COLO 205; conditions: Homo sapiens, COLO 205, Colon Cancer, read-out: % Growth Inhibition (GI%)
Method: as §1

[7] = system: EKVX; conditions: Homo sapiens, Non-Small Cell Lung Cancer, read-out: % Growth Inhibition (GI%)
Method: as §1

[8] = system: HCC-2998; conditions: Homo sapiens, HCC-2998, Colon Cancer, read-out: % Growth Inhibition (GI%)
Method: as §1

[9] = system: HCT-116; conditions: Homo sapiens, HCT-116, Colon Cancer, read-out: % Growth Inhibition (GI%)
Method: as §1

[10] = system: HCT-15; conditions: Homo sapiens, HCT-15, Colon Cancer, read-out: % Growth Inhibition (GI%)
Method: as §1

[11] = system: HOP-62; conditions: Homo sapiens, HOP-62, Non-Small Cell Lung Cancer, read-out: % Growth Inhibition (GI%)
Method: as §1

[12] = system: HOP-92; conditions: Homo sapiens, HOP-92, Non-Small Cell Lung Cancer, read-out: % Growth Inhibition (GI%)
Method: as §1

[13] = system: IGROV1; conditions: Homo sapiens, IGROV-1, IGROV1, Ovarian Cancer, read-out: % Growth Inhibition (GI%)
Method: as §1

[14] = system: KM12; conditions: Homo sapiens, KM12, Colon Cancer, read-out: % Growth Inhibition (GI%)
Method: as §1

[15] = system: LOX-IMVI; conditions: Homo sapiens, Melanoma, read-out: % Growth Inhibition (GI%)
Method: as §1

[16] = system: MALME-3M; conditions: Homo sapiens, Melanoma, read-out: % Growth Inhibition (GI%)
Method: as §1

[17] = system: MCF7; conditions: Homo sapiens, MCF7, Breast Cancer, read-out: % Growth Inhibition (GI%)
Method: as §1

[18] = system: MDA-MB-435; conditions: Homo sapiens, MDA-MB-435, Melanoma, read-out: % Growth Inhibition (GI%)
Method: as §1

[19] = system: MOLT-4; conditions: Homo sapiens, MOLT-4, Leukemia, read-out: % Growth Inhibition (GI%)
Method: as §1

[20] = system: NCI-H23; conditions: Homo sapiens, NCI-H23, Non-Small Cell Lung Cancer, read-out: % Growth Inhibition (GI%)
Method: as §1

[21] = system: NCI-H460; conditions: Homo sapiens, NCI-H460, Non-Small Cell Lung Cancer, read-out: % Growth Inhibition (GI%)
Method: as §1

[22] = system: NCI-H522; conditions: Homo sapiens, NCI-H522, Non-Small Cell Lung Cancer, read-out: % Growth Inhibition (GI%)
Method: as §1

[23] = system: NCI/ADR-RES; conditions: Homo sapiens, Ovarian Cancer, read-out: % Growth Inhibition (GI%)
Method: as §1

[24] = system: OVCAR-4; conditions: Homo sapiens, OVCAR-4, Ovarian Cancer, read-out: % Growth Inhibition (GI%)
Method: as §1

[25] = system: OVCAR-5; conditions: Homo sapiens, OVCAR-5, Ovarian Cancer, read-out: % Growth Inhibition (GI%)
Method: as §1

[26] = system: OVCAR-8; conditions: Homo sapiens, OVCAR-8, Ovarian Cancer, read-out: % Growth Inhibition (GI%)
Method: as §1

[27] = system: SF-295; conditions: Homo sapiens, SF-295, CNS Cancer, read-out: % Growth Inhibition (GI%)
Method: as §1

[28] = system: SK-MEL-28; conditions: Homo sapiens, SK-MEL-28, Melanoma, read-out: % Growth Inhibition (GI%)
Method: as §1

[29] = system: SK-MEL-2; conditions: Homo sapiens, SK-MEL-2, Melanoma, read-out: % Growth Inhibition (GI%)
Method: as §1

[30] = system: SK-MEL-5; conditions: Homo sapiens, SK-MEL-5, Melanoma, read-out: % Growth Inhibition (GI%)
Method: as §1

[31] = system: SK-OV-3; conditions: Homo sapiens, SK-OV-3, Ovarian Cancer, read-out: % Growth Inhibition (GI%)
Method: as §1

[32] = system: SN12C; conditions: Homo sapiens, Renal Cancer, read-out: % Growth Inhibition (GI%)
Method: as §1

[33] = system: SNB-75; conditions: Homo sapiens, SNB-75, CNS Cancer, read-out: % Growth Inhibition (GI%)
Method: as §1

[34] = system: SR; conditions: Homo sapiens, Leukemia, read-out: % Growth Inhibition (GI%)
Method: as §1

[35] = system: SW-620; conditions: Homo sapiens, SW-620, Colon Cancer, read-out: % Growth Inhibition (GI%)
Method: as §1

[36] = system: UACC-62; conditions: Homo sapiens, UACC-62, Melanoma, read-out: % Growth Inhibition (GI%)
Method: as §1

Structure (SMILES) | inhibition at 10 µM [1] [%] | inhibition at 10 µM [2] [%] | inhibition at 10 µM [3] [%] | inhibition at 10 µM [4] [%] | inhibition at 10 µM [5] [%] | inhibition at 10 µM [6] [%] | inhibition at 10 µM [7] [%] | inhibition at 10 µM [8] [%] | inhibition at 10 µM [9] [%] | inhibition at 10 µM [10] [%] | inhibition at 10 µM [11] [%] | inhibition at 10 µM [12] [%] | inhibition at 10 µM [13] [%] | inhibition at 10 µM [14] [%] | inhibition at 10 µM [15] [%] | inhibition at 10 µM [16] [%] | inhibition at 10 µM [17] [%] | inhibition at 10 µM [18] [%] | inhibition at 10 µM [19] [%] | inhibition at 10 µM [20] [%] | further results
Cc1ccccc1COc1ccc(-c2noc(C)c2-c2ccc(Cl)cc2)cc1 [compound 11, 4-(4-Chlorophenyl)-5-methyl-3-(4-((2-methylbenzyl)oxy)phenyl)isoxazole] | 50.7 | 33 | 33.8 | 51.3 | 61.8 | 29 | 24.9 | 13.4 | 66 | 62.5 | 48.4 | 27.4 | 47.5 | 45.7 | 32 | 40.2 | 68.3 | 100 | 67.2 | 26.2 | inhibition at 10 µM [21]: 45.3%; inhibition at 10 µM [22]: 74.5%; inhibition at 10 µM [23]: 60.8%; inhibition at 10 µM [24]: 17.3%; inhibition at 10 µM [25]: 12.4%; inhibition at 10 µM [26]: 24.2%; inhibition at 10 µM [27]: 50.6%; inhibition at 10 µM [28]: 29.6%; inhibition at 10 µM [29]: 62.9%; inhibition at 10 µM [30]: 26.6%; inhibition at 10 µM [31]: 40.5%; inhibition at 10 µM [32]: 31.7%; inhibition at 10 µM [33]: 47.1%; inhibition at 10 µM [34]: 66%; inhibition at 10 µM [35]: 68.3%; inhibition at 10 µM [36]: 51.5%
Cc1ccccc1COc1ccc(-c2ccnn2-c2ccc(Cl)cc2)cc1 [compound 85, 1-(4-Chlorophenyl)-5-(4-((2-methylbenzyl)oxy)phenyl)-1H-pyrazole] | 50.5 | 22.4 | 25 | 40.3 | 57.6 | 28.8 | 22.9 | 10.9 | 61.9 | 60.1 | 50.7 | 25.8 | 42.5 | 49.3 | 35.7 | 32.8 | 68.1 | 99.2 | 73.7 | 23.4 | inhibition at 10 µM [21]: 41.7%; inhibition at 10 µM [22]: 70.9%; inhibition at 10 µM [23]: 62%; inhibition at 10 µM [24]: 14.3%; inhibition at 10 µM [25]: 8.29%; inhibition at 10 µM [26]: 24.8%; inhibition at 10 µM [27]: 46.9%; inhibition at 10 µM [28]: 30.6%; inhibition at 10 µM [29]: 60.8%; inhibition at 10 µM [30]: 33.4%; inhibition at 10 µM [31]: 36.3%; inhibition at 10 µM [32]: 32.4%; inhibition at 10 µM [33]: 39.3%; inhibition at 10 µM [34]: 66.2%; inhibition at 10 µM [35]: 70.3%; inhibition at 10 µM [36]: 39.3%
